In PMC9639207 (RSC Advances, 2022):

Experiments:
[1] = In vitro stability on incubation with mouse serum; type: in vitro ADME; settings: for half-life at 200 µM: mouse, serum; for Fold in vitro half-life relative to native GLP-1, serum incubation: ratio to native GLP-1 (55.7 min), mouse serum, 37 °C
[2] = target: dipeptidyl peptidase-IV (DPP-IV) (Homo sapiens, UniProt P27487); assay: In vitro proteolytic stability against DPP-IV; type: in vitro ADME; settings: for half-life: isolated enzyme dpp iv, pH 7.4; for Fold in vitro half-life relative to native GLP-1, DPP-IV incubation: ratio to native GLP-1 (10.2 min), 37 °C
Chain of dipeptidyl peptidase-IV (DPP-IV) (P27487 whole entry, species assumed): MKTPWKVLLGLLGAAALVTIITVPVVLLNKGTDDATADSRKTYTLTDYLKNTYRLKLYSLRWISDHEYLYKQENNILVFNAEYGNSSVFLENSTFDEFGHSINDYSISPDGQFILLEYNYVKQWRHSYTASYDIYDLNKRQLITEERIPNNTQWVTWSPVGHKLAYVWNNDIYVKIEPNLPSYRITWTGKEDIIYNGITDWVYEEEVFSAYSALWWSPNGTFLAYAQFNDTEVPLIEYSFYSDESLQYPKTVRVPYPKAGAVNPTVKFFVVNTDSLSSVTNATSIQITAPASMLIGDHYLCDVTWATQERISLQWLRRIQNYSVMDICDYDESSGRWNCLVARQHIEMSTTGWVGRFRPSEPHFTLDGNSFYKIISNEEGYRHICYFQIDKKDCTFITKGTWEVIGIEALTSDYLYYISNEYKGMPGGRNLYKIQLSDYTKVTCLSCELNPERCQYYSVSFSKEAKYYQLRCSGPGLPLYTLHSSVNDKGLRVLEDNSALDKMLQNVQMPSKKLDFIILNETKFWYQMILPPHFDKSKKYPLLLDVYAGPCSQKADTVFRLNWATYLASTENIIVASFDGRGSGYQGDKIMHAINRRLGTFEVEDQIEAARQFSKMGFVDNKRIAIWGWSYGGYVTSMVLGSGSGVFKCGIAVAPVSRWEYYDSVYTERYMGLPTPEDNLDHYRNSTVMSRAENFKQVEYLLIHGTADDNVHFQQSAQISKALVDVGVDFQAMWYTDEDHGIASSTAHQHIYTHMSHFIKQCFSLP

Row | SMILES | half-life at 200 µM [1] [h] | half-life [2] [h] | Fold in vitro half-life relative to native GLP-1, serum incubation [1] [fold] | Fold in vitro half-life relative to native GLP-1, DPP-IV incubation [2] [fold]
1 | CC[C@H](C)[C@H](NC(=O)[C@H](CO)NC(=O)[C@H](CCC(=O)O)NC(=O)[C@H](CC(=O)N[C@@H]1O[C@H](CO)[C@@H](O)[C@H](O)[C@H]1O)NC(=O)[C@H](C)NC(=O)[C@H](C)NC(=O)[C@H](CCC(N)=O)NC(=O)CNC(=O)[C@H](CCC(=O)O)NC(=O)[C@H](CC(C)C)NC(=O)[C@H](Cc1ccc(O)cc1)NC(=O)[C@H](CO)NC(=O)[C@H](CO)NC(=O)[C@@H](NC(=O)[C@H](CC(=O)O)NC(=O)[C@H](CO)NC(=O)[C@@H](NC(=O)[C@H](Cc1ccccc1)NC(=O)[C@@H](NC(=O)CNC(=O)[C@H](CCC(=O)O)NC(=O)[C@H](C)NC(=O)[C@@H](N)Cc1c[nH]cn1)[C@@H](C)O)[C@@H](C)O)C(C)C)C(=O)N[C@@H](C)C(=O)N[C@@H](Cc1c[nH]c2ccccc12)C(=O)N[C@@H](CC(C)C)C(=O)N[C@H](C(=O)N[C@@H](CCCCN)C(=O)NCC(=O)N[C@@H](CCCNC(=N)N)C(=O)NCC(=O)O)C(C)C [Glc-GLP-1-3] | 2.31 ± 0.242 | 0.768 ± 0.0583 |  | 
2 | CC[C@H](C)[C@H](NC(=O)[C@H](Cc1ccccc1)NC(=O)[C@H](CCC(=O)O)NC(=O)[C@H](CCCCN)NC(=O)[C@H](C)NC(=O)[C@H](C)NC(=O)[C@H](CCC(N)=O)NC(=O)CNC(=O)[C@H](CCC(=O)O)NC(=O)[C@H](CC(C)C)NC(=O)[C@H](Cc1ccc(O)cc1)NC(=O)[C@H](CO)NC(=O)[C@H](CO)NC(=O)[C@@H](NC(=O)[C@H](CC(=O)N[C@@H]1O[C@H](CO)[C@@H](O)[C@H](O)[C@H]1O)NC(=O)[C@H](CO)NC(=O)[C@@H](NC(=O)[C@H](Cc1ccccc1)NC(=O)[C@@H](NC(=O)CNC(=O)[C@H](CCC(=O)O)NC(=O)[C@H](C)NC(=O)[C@@H](N)Cc1c[nH]cn1)[C@@H](C)O)[C@@H](C)O)C(C)C)C(=O)N[C@@H](C)C(=O)N[C@@H](Cc1c[nH]c2ccccc12)C(=O)N[C@@H](CC(C)C)C(=O)N[C@H](C(=O)N[C@@H](CCCCN)C(=O)NCC(=O)N[C@@H](CCCNC(=N)N)C(=O)NCC(=O)O)C(C)C [Glc-GLP-1-1] | 1.57 ± 0.127 | 0.503 ± 0.04 |  | 
3 | CC[C@H](C)[C@H](NC(=O)[C@H](Cc1ccccc1)NC(=O)[C@H](CCC(=O)O)NC(=O)[C@H](CCCCN)NC(=O)[C@H](C)NC(=O)[C@H](C)NC(=O)[C@H](CCC(N)=O)NC(=O)CNC(=O)[C@H](CCC(=O)O)NC(=O)[C@H](CC(C)C)NC(=O)[C@H](Cc1ccc(O)cc1)NC(=O)[C@H](CO)NC(=O)[C@H](CO)NC(=O)[C@@H](NC(=O)[C@H](CC(=O)O)NC(=O)[C@H](CO)NC(=O)[C@@H](NC(=O)[C@H](Cc1ccccc1)NC(=O)[C@@H](NC(=O)CNC(=O)[C@H](CCC(=O)O)NC(=O)[C@H](C)NC(=O)[C@@H](N)Cc1c[nH]cn1)[C@@H](C)O)[C@@H](C)O)C(C)C)C(=O)N[C@@H](C)C(=O)N[C@@H](Cc1c[nH]c2ccccc12)C(=O)N[C@@H](CC(C)C)C(=O)N[C@H](C(=O)N[C@@H](CC(=O)N[C@@H]1O[C@H](CO)[C@@H](O[C@@H]2O[C@H](CO)[C@@H](O[C@@H]3O[C@H](CO[C@H]4O[C@H](CO)[C@@H](O)[C@H](O)[C@@H]4O[C@@H]4O[C@H](CO)[C@@H](O[C@@H]5O[C@H](CO[C@]6(C(=O)O)C[C@H](O)[C@@H](NC(C)=O)[C@H]([C@H](O)[C@H](O)CO)O6)[C@H](O)[C@H](O)[C@H]5O)[C@H](O)[C@H]4NC(C)=O)[C@@H](O)[C@H](O[C@H]4O[C@H](CO)[C@@H](O)[C@H](O)[C@@H]4O[C@@H]4O[C@H](CO)[C@@H](O[C@@H]5O[C@H](CO[C@]6(C(=O)O)C[C@H](O)[C@@H](NC(C)=O)[C@H]([C@H](O)[C@H](O)CO)O6)[C@H](O)[C@H](O)[C@H]5O)[C@H](O)[C@H]4NC(C)=O)[C@@H]3O)[C@H](O)[C@H]2NC(C)=O)[C@H](O)[C@H]1O)C(=O)NCC(=O)N[C@H](C(=O)NCC(=O)O)[C@@H](C)O)C(C)C [Glycan-GLP-1-5(G2S2)] | 12.9 ± 0.17 | 4.088 ± 0.0217 | 13.9 | 24.0
4 | CC[C@H](C)[C@H](NC(=O)[C@H](Cc1ccccc1)NC(=O)[C@H](CCC(=O)O)NC(=O)[C@H](CCCCN)NC(=O)[C@H](C)NC(=O)[C@H](C)NC(=O)[C@H](CCC(N)=O)NC(=O)CNC(=O)[C@H](CCC(=O)O)NC(=O)[C@H](CC(C)C)NC(=O)[C@H](Cc1ccc(O)cc1)NC(=O)[C@H](CO)NC(=O)[C@H](CO)NC(=O)[C@@H](NC(=O)[C@H](CC(=O)O)NC(=O)[C@H](CO)NC(=O)[C@@H](NC(=O)[C@H](Cc1ccccc1)NC(=O)[C@@H](NC(=O)CNC(=O)[C@H](CCC(=O)O)NC(=O)[C@H](C)NC(=O)[C@@H](N)Cc1c[nH]cn1)[C@@H](C)O)[C@@H](C)O)C(C)C)C(=O)N[C@@H](C)C(=O)N[C@@H](Cc1c[nH]c2ccccc12)C(=O)N[C@@H](CC(C)C)C(=O)N[C@H](C(=O)N[C@@H](CC(=O)N[C@@H]1O[C@H](CO)[C@@H](O[C@@H]2O[C@H](CO)[C@@H](O[C@@H]3O[C@H](CO[C@H]4O[C@H](CO)[C@@H](O)[C@H](O)[C@@H]4O[C@@H]4O[C@H](CO)[C@@H](O[C@@H]5O[C@H](CO)[C@H](O)[C@H](O)[C@H]5O)[C@H](O)[C@H]4NC(C)=O)[C@@H](O)[C@H](O[C@H]4O[C@H](CO)[C@@H](O)[C@H](O)[C@@H]4O[C@@H]4O[C@H](CO)[C@@H](O[C@@H]5O[C@H](CO)[C@H](O)[C@H](O)[C@H]5O)[C@H](O)[C@H]4NC(C)=O)[C@@H]3O)[C@H](O)[C@H]2NC(C)=O)[C@H](O)[C@H]1O)C(=O)NCC(=O)N[C@H](C(=O)NCC(=O)O)[C@@H](C)O)C(C)C [Glycan-GLP-1-5(G2)] | 6.51 ± 0.225 | 3.0333 ± 0.00167 |  | 
5 | CC[C@H](C)[C@H](NC(=O)[C@H](Cc1ccccc1)NC(=O)[C@H](CCC(=O)O)NC(=O)[C@H](CCCCN)NC(=O)[C@H](C)NC(=O)[C@H](C)NC(=O)[C@H](CCC(N)=O)NC(=O)CNC(=O)[C@H](CCC(=O)O)NC(=O)[C@H](CC(C)C)NC(=O)[C@H](Cc1ccc(O)cc1)NC(=O)[C@H](CO)NC(=O)[C@H](CO)NC(=O)[C@@H](NC(=O)[C@H](CC(=O)O)NC(=O)[C@H](CO)NC(=O)[C@@H](NC(=O)[C@H](Cc1ccccc1)NC(=O)[C@@H](NC(=O)CNC(=O)[C@H](CCC(=O)O)NC(=O)[C@H](C)NC(=O)[C@@H](N)Cc1c[nH]cn1)[C@@H](C)O)[C@@H](C)O)C(C)C)C(=O)N[C@@H](C)C(=O)N[C@@H](Cc1c[nH]c2ccccc12)C(=O)N[C@@H](CC(C)C)C(=O)N[C@H](C(=O)N[C@@H](CC(=O)N[C@@H]1O[C@H](CO)[C@@H](O)[C@H](O)[C@H]1O)C(=O)NCC(=O)N[C@H](C(=O)NCC(=O)O)[C@@H](C)O)C(C)C [Glc-GLP-1-5] | 1.89 ± 0.197 | 0.542 ± 0.0233 |  | 
6 | CC[C@H](C)[C@H](NC(=O)[C@H](CO)NC(=O)[C@H](CCC(=O)O)NC(=O)[C@H](CC(=O)N[C@@H]1O[C@H](CO)[C@@H](O[C@@H]2O[C@H](CO)[C@@H](O[C@@H]3O[C@H](CO[C@H]4O[C@H](CO)[C@@H](O)[C@H](O)[C@@H]4O[C@@H]4O[C@H](CO)[C@@H](O[C@@H]5O[C@H](CO[C@]6(C(=O)O)C[C@H](O)[C@@H](NC(C)=O)[C@H]([C@H](O)[C@H](O)CO)O6)[C@H](O)[C@H](O)[C@H]5O)[C@H](O)[C@H]4NC(C)=O)[C@@H](O)[C@H](O[C@H]4O[C@H](CO)[C@@H](O)[C@H](O)[C@@H]4O[C@@H]4O[C@H](CO)[C@@H](O[C@@H]5O[C@H](CO[C@]6(C(=O)O)C[C@H](O)[C@@H](NC(C)=O)[C@H]([C@H](O)[C@H](O)CO)O6)[C@H](O)[C@H](O)[C@H]5O)[C@H](O)[C@H]4NC(C)=O)[C@@H]3O)[C@H](O)[C@H]2NC(C)=O)[C@H](O)[C@H]1O)NC(=O)[C@H](C)NC(=O)[C@H](C)NC(=O)[C@H](CCC(N)=O)NC(=O)CNC(=O)[C@H](CCC(=O)O)NC(=O)[C@H](CC(C)C)NC(=O)[C@H](Cc1ccc(O)cc1)NC(=O)[C@H](CO)NC(=O)[C@H](CO)NC(=O)[C@@H](NC(=O)[C@H](CC(=O)O)NC(=O)[C@H](CO)NC(=O)[C@@H](NC(=O)[C@H](Cc1ccccc1)NC(=O)[C@@H](NC(=O)CNC(=O)[C@H](CCC(=O)O)NC(=O)[C@H](C)NC(=O)[C@@H](N)Cc1c[nH]cn1)[C@@H](C)O)[C@@H](C)O)C(C)C)C(=O)N[C@@H](C)C(=O)N[C@@H](Cc1c[nH]c2ccccc12)C(=O)N[C@@H](CC(C)C)C(=O)N[C@H](C(=O)N[C@@H](CCCCN)C(=O)NCC(=O)N[C@@H](CCCNC(=N)N)C(=O)NCC(=O)O)C(C)C [Glycan-GLP-1-3(G2S2)] | 23.22 ± 0.148 | 6.245 ± 0.03 | 25.0 | 36.7
7 | CC[C@H](C)[C@H](NC(=O)[C@H](Cc1ccccc1)NC(=O)[C@H](CCC(=O)O)NC(=O)[C@H](CCCCN)NC(=O)[C@H](C)NC(=O)[C@H](C)NC(=O)[C@H](CCC(N)=O)NC(=O)CNC(=O)[C@H](CCC(=O)O)NC(=O)[C@H](CC(C)C)NC(=O)[C@H](Cc1ccc(O)cc1)NC(=O)[C@H](CO)NC(=O)[C@H](CO)NC(=O)[C@@H](NC(=O)[C@H](CC(=O)N[C@@H]1O[C@H](CO)[C@@H](O[C@@H]2O[C@H](CO)[C@@H](O[C@@H]3O[C@H](CO[C@H]4O[C@H](CO)[C@@H](O)[C@H](O)[C@@H]4O[C@@H]4O[C@H](CO)[C@@H](O[C@@H]5O[C@H](CO[C@]6(C(=O)O)C[C@H](O)[C@@H](NC(C)=O)[C@H]([C@H](O)[C@H](O)CO)O6)[C@H](O)[C@H](O)[C@H]5O)[C@H](O)[C@H]4NC(C)=O)[C@@H](O)[C@H](O[C@H]4O[C@H](CO)[C@@H](O)[C@H](O)[C@@H]4O[C@@H]4O[C@H](CO)[C@@H](O[C@@H]5O[C@H](CO[C@]6(C(=O)O)C[C@H](O)[C@@H](NC(C)=O)[C@H]([C@H](O)[C@H](O)CO)O6)[C@H](O)[C@H](O)[C@H]5O)[C@H](O)[C@H]4NC(C)=O)[C@@H]3O)[C@H](O)[C@H]2NC(C)=O)[C@H](O)[C@H]1O)NC(=O)[C@H](CO)NC(=O)[C@@H](NC(=O)[C@H](Cc1ccccc1)NC(=O)[C@@H](NC(=O)CNC(=O)[C@H](CCC(=O)O)NC(=O)[C@H](C)NC(=O)[C@@H](N)Cc1c[nH]cn1)[C@@H](C)O)[C@@H](C)O)C(C)C)C(=O)N[C@@H](C)C(=O)N[C@@H](Cc1c[nH]c2ccccc12)C(=O)N[C@@H](CC(C)C)C(=O)N[C@H](C(=O)N[C@@H](CCCCN)C(=O)NCC(=O)N[C@@H](CCCNC(=N)N)C(=O)NCC(=O)O)C(C)C [Glycan-GLP-1-1(G2S2)] | 12.3 ± 0.205 | 2.43 ± 0.0717 |  | 
